This is an account of results in patent US8518953B2, “Aminopyrimidines useful as inhibitors of protein kinases” (Vertex Pharmaceuticals Incorporated, priority 2007, dated 2013).

pIC50, pKi: −log10 of the molar value. Bounds are passed on as bounds.

Test [1] has as its target T1, GSK-3β (AA 1-420) (Homo sapiens, UniProt P49841).
T1 construct: GSK-3β (AA 1-420)
Put plainly: GSK-3 Inhibition Assay (standard coupled enzyme system). The test is classed as biochemical. The settings on record: 20 μM ATP, 300 μM peptide, 20 nM GSK-3β, 30° C. The procedure:
Compounds of the present invention were screened for their ability to inhibit GSK-3β (AA 1-420) activity using a standard coupled enzyme system (Fox et al., Protein Sci. 1998, 7, 2249). Reactions were carried out in a solution containing 100 mM HEPES (pH 7.5), 10 mM MgCl2, 25 mM NaCl, 300 μM NADH, 1 mM DTT and 1.5% DMSO. Final substrate concentrations in the assay were 20 μM ATP (Sigma Chemicals, St Louis, Mo.) and 300 μM peptide (American Peptide, Sunnyvale, Calif.). Reactions were carried out at 30° C. and 20 nM GSK-3β. Final concentrations of the components of the coupled enzyme system were 2.5 mM phosphoenolpyruvate, 300 μM NADH, 30 μg/ml pyruvate kinase and 10 μg/ml lactate dehydrogenase.
An assay stock buffer solution was prepared containing all of the reagents listed above with the exception of ATP and the test compound of the present invention. The assay stock buffer solution (175 μl) was incubated in a 96 well plate with 5 μl of the test compound of the present invention at final concentrations spanning 0.002 μM to 30 μM at 30° C. for 10 min. […] Rates of reaction were obtained using a Molecular Devices Spectramax plate reader (Sunnyvale, Calif.) over 10 min at 30° C. The Ki values were determined from the rate data as a function of inhibitor concentration.

The target in test [2] is T2, GSK3α TYR 279 (Homo sapiens, UniProt P49840).
T2 construct: western blotting of Jurkat cells dosed with the compounds; endogenous in cells; host or cells: Jurkat cells
T2 sequence (P49840 whole entry): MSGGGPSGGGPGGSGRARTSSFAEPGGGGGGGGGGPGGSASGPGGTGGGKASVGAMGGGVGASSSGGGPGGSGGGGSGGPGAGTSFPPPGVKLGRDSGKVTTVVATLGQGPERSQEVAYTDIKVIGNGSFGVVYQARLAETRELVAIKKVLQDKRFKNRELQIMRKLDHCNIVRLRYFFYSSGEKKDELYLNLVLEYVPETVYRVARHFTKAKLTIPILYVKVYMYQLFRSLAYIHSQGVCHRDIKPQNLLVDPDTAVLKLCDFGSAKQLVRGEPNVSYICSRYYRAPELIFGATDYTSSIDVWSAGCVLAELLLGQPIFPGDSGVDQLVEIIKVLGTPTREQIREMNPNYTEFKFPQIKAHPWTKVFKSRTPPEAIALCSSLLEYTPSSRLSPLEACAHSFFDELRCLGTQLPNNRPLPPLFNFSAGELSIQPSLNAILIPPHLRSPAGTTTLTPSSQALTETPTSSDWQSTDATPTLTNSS
Nature of the test: GSK-3α p-TYR Inhibition Assay (western blotting of Jurkat cells). The class given is cell-based. The conditions noted are these: western blot, read-out: GSK3a pTYR 279: IC50. On the procedure: (§1) Compounds are screened for their ability to inhibit the phosphorylation of tyrosine (TYR) residues through the use of western blotting of Jurkat cells dosed with the compounds. The phosphorylation of the specific TYR residues tested are GSK3α TYR 279 and GSK3β TYR 216.
(§2) Jurkat cells are seeded at a density of 2×10^5 cells/well in a 12 well dish in starvation media (RPMI+1% FBS+P/S). Following starvation for 16 hours, the compound is dosed into each well at a final DMSO concentration of 0.3% and cells are incubated o/n at 37° C. 5% CO2. The next day, cells are spun down at 1500 rpm, washed with PBS, and lysed in 100 uL Laemli sample buffer with β-mercaptoethanol.
(§3) 15 microliters (uL) of cell lysates are loaded onto a 10% tris-glycine gel and run at 120 v for 2 hours or until dye front runs off of the gel. The protein is then transferred onto a PVDF membrane at 100 v for 60 min. PBST (PBS containing 0.1% Tween 20, such as 1 ml Tween per 1 L of PBS) is then made up and used for all washes and antibody incubations. The blot is blocked in 5% nonfat milk PBST for one hour.
(§4) The primary antibody (GSK-3α/β pTYR 279/216 at 1:1000 dilution Upstate cat#05-413) is then added in […] PBST overnight at 4° C. with gentle rocking. The blot is then washed in PBST for 5 min. This is then repeated 4 times. […]
For orientation: A western blot detects proteins with antibodies after separation by electrophoresis.

For test [3], the target named is T3, GSK3β TYR 216 (Homo sapiens, UniProt P49841).
T3 construct: western blotting of Jurkat cells dosed with the compounds; endogenous in cells; host or cells: Jurkat cells
T3 sequence (P49841 whole entry): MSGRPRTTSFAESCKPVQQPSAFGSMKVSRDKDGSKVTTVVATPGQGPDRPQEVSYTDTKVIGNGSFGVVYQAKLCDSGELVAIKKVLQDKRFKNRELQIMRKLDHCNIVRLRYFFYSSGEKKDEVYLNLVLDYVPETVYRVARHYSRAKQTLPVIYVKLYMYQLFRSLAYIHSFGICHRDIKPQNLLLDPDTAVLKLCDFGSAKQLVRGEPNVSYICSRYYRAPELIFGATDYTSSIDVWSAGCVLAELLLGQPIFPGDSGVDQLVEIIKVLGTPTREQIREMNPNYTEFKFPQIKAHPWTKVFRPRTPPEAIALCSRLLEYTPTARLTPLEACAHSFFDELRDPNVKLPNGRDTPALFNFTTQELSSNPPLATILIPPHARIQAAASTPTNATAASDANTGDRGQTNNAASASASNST
Put plainly: GSK3β p-TYR Inhibition Assay (western blotting of Jurkat cells). The test is classed as cell-based. The conditions noted are these: western blot, read-out: GSK3b pTYR 216: IC50. On the procedure: as §1, §2, §3, §4

The subject of test [4] is β-catenin dependent TCF/LEF transcriptional activity. Nature of the test: β-Catenin Stabilization Protocol (β-lactamase reporter assay in Jurkat cells). The test is classed as cell-based. The settings on record: Homo sapiens, 460/530 ratio, read-out: Beta Catenin IC50. From the text:
GSK-3 phosphorylation of β-catenin targets it to the proteosome for degradation. Inhibition of GSK-3 results in accumulation of β-catenin in the cytosol of cells which through interaction with the transcription factor TCF/LEF translocates to the nucleus and drives the transcription of Wnt-dependent genes. The assay is designed to determine the level of β-catenin dependent TCF/LEF transcriptional activity in a quantitative manner through the use of a β-lactamase reporter assay in Jurkat cells dosed with a compound.
Jurkat β-catenin cells are starved overnight in assay media (1% FBS, 1× Penstrep, RPMI) in the flask. The next day Jurkat β-catenin cells are seeded in 96 well flat bottom plates at a density of 50,000 cells/well in assay media in a volume of 100 ul. The compound is added to the well at a final DMSO concentration of 0.75% and incubated at 37° C. o/n. The next day, 20 uL of 6×CCF4 dye is added to the wells and incubated at room temperature for 1-2 hours. Plates are read on the Cytofluor 4000 series multiwell plate reader and the 460/530 ratio is determined.
Background: Reporter assays use an easily measured gene product as a stand-in for the process of interest.

The test system of test [5] is rat brains after transient middle cerebral artery occlusion. The settings on record: rat brains after transient MCAO; cited from earlier work.

T1 sequence (P49841 whole entry, species assumed, the tested form may be a part): as the sequence (P49841 whole entry) above

Regarding `CCc1c(C)nc(-c2ccccc2Cl)nc1Nc1n[nH]c2ncc(F)cc12` [Compound I-2], the pKi in test [1] was more than 8.30. Further, the values for the pIC50 in test [2], in test [3] and in test [4] were 8.70, 7.52 and 6.03, respectively.
Regarding “IGF-1: insulin growth factor-1, a known GSK-3 inhibitor”, in test [5], the infarct size entry was “reduced infarct size”.

What is called pKi is the negative decadic logarithm of the Ki, by convention in mol/L. A high value points to a small Ki. Usually pIC50 stands for the negative decadic logarithm of the IC50, by convention in mol/L.
